Measured values published in US9546153B2, “Bicyclic heterocycle substituted pyridyl compounds useful as kinase modulators” (BRISTOL-MYERS SQUIBB COMPANY, priority 2012, dated 2017).
Where “and” joins values, the source holds several entries; their conditions need not be identical. Equal entries are not always repeated. Where two headings read alike, the source gives them in different places.

Columns and labels:
IRAK4 = IRAK4 (Homo sapiens (Human), UniProt Q9NWZ3); experiment: IRAK4 Inhibition Assay; type: biochemical; settings: ATP 500 μM; IRAK4 0.6 nM; 60 min at room temperature
IRAK4, sequence (Q9NWZ3 whole entry, species assumed): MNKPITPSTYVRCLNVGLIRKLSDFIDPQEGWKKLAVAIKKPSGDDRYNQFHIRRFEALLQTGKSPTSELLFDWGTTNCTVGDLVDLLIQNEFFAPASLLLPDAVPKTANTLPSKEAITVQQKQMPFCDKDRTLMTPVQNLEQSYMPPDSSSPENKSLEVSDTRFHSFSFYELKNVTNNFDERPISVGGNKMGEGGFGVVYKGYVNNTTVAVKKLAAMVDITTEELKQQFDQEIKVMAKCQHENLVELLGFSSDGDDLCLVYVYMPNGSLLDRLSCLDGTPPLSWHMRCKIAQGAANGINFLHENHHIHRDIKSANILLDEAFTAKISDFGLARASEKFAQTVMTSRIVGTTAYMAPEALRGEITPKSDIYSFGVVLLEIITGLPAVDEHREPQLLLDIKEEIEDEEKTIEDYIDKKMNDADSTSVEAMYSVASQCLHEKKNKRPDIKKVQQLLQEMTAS
Description: The assays were performed in U-bottom 384-well plates. […] The reaction was initiated by the combination of IRAK4 with substrates and test compounds. The reaction was incubated at room temperature for 60 min. and terminated by adding 45 μL of 35 mM EDTA to each sample. The reaction mixture was analyzed on the Caliper LABCHIP® 3000 (Caliper, Hopkinton, Mass.) by electrophoretic separation of the fluorescent substrate and phosphorylated product.

[1] = tested on: TLR2 induced IL-6 in peripheral blood mononuclear cells (PBMCs); experiment: PBMC TLR2 Induced IL-6 Assay; type: cell-based, human; settings: human PBMCs, 10 μg/ml lipoteichoic acid for 5 hours, IL-6 by ELISA; for IC50: value without asterisk, read-out: Cell IC50
Description: Peripheral blood mononuclear cells (PBMCs) were isolated from human blood containing the anti-coagulant EDTA (2.5 mM) by centrifugation over a FICOLL® gradient. PBMCs (250000 cells/well) were cultured in assay media (RPMI with 10% heat inactivated FCS) with compounds for 30 minutes at 37° C. in a 5% CO2 incubator. Following pretreatment with compounds, cells were stimulated for 5 hours with 10 μg/ml lipoteichoic acid (Invivogen, San Diego, Calif.), a TLR2 agonist. At the end of the culture, plates were centrifuged at 1800 rpm for 10 minutes to pellet the cells. Supernatants were harvested and analyzed for IL-6 levels by ELISA (BD Biosciences, San Jose, Calif.). Inhibition was calculated as either an IC50 or EC50. EC50 determinations are indicated with an asterisk.

SMILES | IC50 (IRAK4) | IC50 ([1]; Homo sapiens, PBMC, 5 h) [nM] | IC50 [1] [nM] | EC50 ([1]; Homo sapiens, PBMC, 5 h, EC50 determinations are indicated with an asterisk, read-out: Cell EC50 (asterisk)) [nM]
CNC(=O)c1cnc(Nc2ccc3ncsc3c2)cc1NC1C2CC3CC1CC(O)(C3)C2 (single isomer, unassigned) [Example 146] | 53.9 nM | 550 |  | 
CNC(=O)c1cnc(Nc2ccc3ncsc3c2)cc1NC1C2CC3CC1CC(O)(C3)C2 (single isomer, unassigned) [Example 147] | 17.4 nM |  | 507 | 
CNC(=O)c1cnc(Nc2ccc3ncsc3c2)cc1NC1C2CC3CC1CC(O)(C3)C2 (single isomer, unassigned) [Example 148] | 24.5 nM |  | 456 | 
Cc1cc2nc(Nc3cc(NC4CCC(F)C4)c(C(=O)NC[C@@H](F)C(C)(C)O)cn3)ccn2n1 (single isomer, unassigned) [Example 381] | 6.1 nM | 376 |  | 
CNC(=O)c1cnc(Nc2ccc3c(c2)C(F)(F)C(=O)N3)cc1NC1CCCC1 [Example 1, 4-(cyclopentylamino)-6-(3,3-difluoro-2-oxoindolin-5-ylamino)-N-methylnicotinamide] | 4.4 nM | 612 |  | 
CCOC(=O)c1cn2c(n1)sc1cc(Nc3cc(NC4CCCC4)c(C(=O)NC)cn3)ccc12 [Example 3] | 17.1 nM | 180 |  | 
CNC(=O)c1cnc(Nc2nc3ccc(Cl)nc3s2)cc1NC(C)C [Example 4, 6-(5-chlorothiazolo[5,4-b]pyridin-2-ylamino)-4-(isopropylamino)-N-methylnicotinamide] | 18.2 nM | 639 |  | 
CC(C)Nc1cc(Nc2ccc3ncsc3c2)ncc1C(=O)NCCC(C)(C)O [Example 8] | 4.1 nM | 290 |  | 
CC(C)Nc1cc(Nc2ccc3ncsc3c2)ncc1C(=O)NCCc1ccc(C(N)=O)cc1 [Example 11] | 7.8 nM | 726 |  | 
CNC(=O)c1ccc(CCNC(=O)c2cnc(Nc3ccc4ncsc4c3)cc2NC(C)C)cc1 [Example 12] | 5.6 nM | 311 |  | 
CC(C)Nc1cc(Nc2ccc3ncsc3c2)ncc1C(=O)NC[C@@H](F)C(C)(O)C(F)(F)F (stereo partly shown) [Example 17] | 4.7 nM | 221 |  | 
CC(C)Nc1cc(Nc2ccc3ncsc3c2)ncc1C(=O)NC[C@@H](F)C(C)(O)C(F)(F)F (stereo partly shown) [Example 18] | 6.9 nM |  | 269 | 
CC(C)Nc1cc(Nc2ccc3ncoc3c2)ncc1C(=O)NC[C@@H](F)C(O)C(C)C (stereo partly shown) [Example 24] | 4 nM | 468 |  | 
CC(C)C(O)C(F)CNC(=O)c1cnc(Nc2ccc3ncsc3c2)cc1NC(c1ccccc1)C(O)CO (stereo not shown) [Example 27] | 3 nM | 86 |  | 
CC(C)(O)C1CC(Nc2cc(Nc3ccc4ncsc4c3)ncc2C(=O)NC[C@@H](F)C(O)(C2CC2)C(F)(F)F)C1 (stereo partly shown) [Example 32] | 15 nM | 511 |  | 
CC(C)(O)[C@H](F)CNC(=O)c1cnc(Nc2ccc3nsnc3c2)cc1NC1CCCC1 [Example 36] | 8.2 nM | 893 |  | 
CC(CO)Nc1cc(Nc2ccc3ncsc3c2)ncc1C(=O)NC[C@@H](F)C(C)(C)O (stereo partly shown) [Example 39] | 5.3 nM | 503 |  | 
CC(C)Nc1cc(Nc2ccc3nsnc3c2)ncc1C(=O)NC[C@@H](F)C(C)(C)O [Example 41] | 3.5 nM | 318 |  | 
CC(C)Nc1cc(Nc2ccc3nonc3c2)ncc1C(=O)NC[C@@H](F)C(C)(C)O [Example 45] | 7.5 nM | 887 |  | 
CC(C)Nc1cc(Nc2ccc3ncncc3c2)ncc1C(=O)NC[C@@H](F)C(C)(C)O [Example 48] | 3.1 nM | 511 |  | 
CC(C)(O)[C@H](F)CNC(=O)c1cnc(Nc2ccc3ncsc3c2)cc1N[C@@H](c1ccccc1)[C@H](O)CO [Example 49] | 3.4 nM | 444 |  | 
CC(C)(O)[C@H](F)CNC(=O)c1cnc(Nc2ccc3ncsc3c2)cc1Nc1ccc(OC(F)F)cc1 [Example 51] | 3.7 nM | 334 |  | 
CC1COCCC1Nc1cc(Nc2ccc3ncsc3c2)ncc1C(=O)NC[C@@H](F)C(C)(C)O (stereo partly shown) [Example 234] | 4.4 nM and 3.2 nM |  |  | 
Cc1cc2nc(Nc3cc(NC(C)C)c(C(=O)NC[C@@H](F)C(C)(C)O)cn3)ccn2n1 [Example 379] | 6.3 nM |  |  | 
CC(C)Nc1cc(Nc2nc3cccnc3cc2F)ncc1C(=O)NC[C@@H](F)C(C)(C)O [Example 499] |  |  |  | 72
CC(C)Nc1cc(Nc2nc3ccnn3cc2F)ncc1C(=O)NCC(F)(F)C(C)(C)O [Example 522] |  | 795 |  | 

Now from value to compound, other results behind:

IC50 (IRAK4) | SMILES | IC50 ([1]; Homo sapiens, PBMC, 5 h) [nM] | IC50 [1] [nM] | EC50 ([1]; Homo sapiens, PBMC, 5 h, EC50 determinations are indicated with an asterisk, read-out: Cell EC50 (asterisk)) [nM]
2.9 nM | CC(C)(O)[C@H](F)CNC(=O)c1cnc(Nc2ccc3ncsc3c2)cc1NC1CCC(F)C1 (single isomer, unassigned) [Example 362, 6-(benzo[d]thiazol-6-ylamino)-N-(2-fluoro-3-hydroxy-3-methylbutyl)-4-(3-fluorocyclopentylamino)nicotinamide] |  | 44 | 
2.5 nM | CC(C)(O)[C@H](F)CNC(=O)c1cnc(Nc2ccc3ncsc3c2)cc1NC1CCC(F)C1 (single isomer, unassigned) [Example 363, 6-(benzo[d]thiazol-6-ylamino)-N-(2-fluoro-3-hydroxy-3-methylbutyl)-4-(3-fluorocyclopentylamino)nicotinamide] |  | 87 | 
3.6 nM | CC(C)(O)[C@H](F)CNC(=O)c1cnc(Nc2ccc3ncsc3c2)cc1NC1CCC(F)C1 (single isomer, unassigned) [Example 364, 6-(benzo[d]thiazol-6-ylamino)-N-(2-fluoro-3-hydroxy-3-methylbutyl)-4-(3-fluorocyclopentylamino)nicotinamide] |  | 92 | 
5.8 nM | CC(C)(O)[C@H](F)CNC(=O)c1cnc(Nc2ccc3ncsc3c2)cc1NC1CCC(F)C1 (single isomer, unassigned) [Example 365, 6-(benzo[d]thiazol-6-ylamino)-N-(2-fluoro-3-hydroxy-3-methylbutyl)-4-(3-fluorocyclopentylamino)nicotinamide] |  | 97 | 
9.6 nM | CC(C)Nc1cc(Nc2ccc3ncsc3c2)ncc1C(=O)NC[C@@H](F)CO [Example 5, (R)-6-(benzo[d]thiazol-6-ylamino)-N-(2-fluoro-3-hydroxypropyl)-4-(isopropylamino)nicotinamide] | 484 |  | 
10 nM | CC(C)(O)CCNC(=O)c1cnc(Nc2ccc3ncsc3c2)cc1NC1CC1 [Example 9] | 289 |  | 
5.1 nM | O=C(NCCC1(O)CCC1)c1cnc(Nc2ccc3ncsc3c2)cc1NC1CC1 [Example 10] | 115 |  | 
3 nM | CC(C)Nc1cc(Nc2ccc3ncsc3c2)ncc1C(=O)NC[C@@H](F)C(O)C(C)C (stereo partly shown) [Example 13] |  | 107 | 
4.3 nM | CC(C)Nc1cc(Nc2ccc3ncsc3c2)ncc1C(=O)NC[C@@H](F)C(O)C(C)C (stereo partly shown) [Example 14] |  | 461 | 
5.2 nM | CC(C)Nc1cc(Nc2ccc3ncsc3c2)ncc1C(=O)NC[C@@H](F)C(O)C1CC1 (stereo partly shown) [Example 15] | 541 |  | 
5.2 nM | CC(C)Nc1cc(Nc2ccc3ncsc3c2)ncc1C(=O)NC[C@@H](F)C(O)C1CC1 (stereo partly shown) [Example 16] |  | 595 | 
4.3 nM | CC(O)([C@H](F)CNC(=O)c1cnc(Nc2ccc3ncsc3c2)cc1NC1CC1)C(F)(F)F (stereo partly shown) [Example 19] |  | 177 | 
4.9 nM | CC(O)([C@H](F)CNC(=O)c1cnc(Nc2ccc3ncsc3c2)cc1NC1CC1)C(F)(F)F (stereo partly shown) [Example 20] |  | 562 | 
3.5 nM | CC(C)C(O)[C@H](F)CNC(=O)c1cnc(Nc2ccc3ncsc3c2)cc1NC1CC1 (stereo partly shown) [Example 25] |  | 60 | 
7.3 nM | CC(C)C(O)[C@H](F)CNC(=O)c1cnc(Nc2ccc3ncsc3c2)cc1NC1CC1 (stereo partly shown) [Example 26] |  | 121 | 
7.8 nM | CC(O)[C@H](F)CNC(=O)c1cnc(Nc2ccc3ncsc3c2)cc1NC1CCCC1 (stereo partly shown) [Example 28] | 195 |  | 
9.2 nM | CC(O)[C@H](F)CNC(=O)c1cnc(Nc2ccc3ncsc3c2)cc1NC1CCCC1 (stereo partly shown) [Example 29] |  | 128 | 
3.7 nM | CC(C)(O)[C@H](F)CNC(=O)c1cnc(Nc2ccc3ncsc3c2)cc1NC1CCCC1 [Example 33, (R)-6-(benzo[d]thiazol-6-ylamino)-4-(cyclopentylamino)-N-(2-fluoro-3-hydroxy-3-methylbutyl)nicotinamide] | 64 |  | 
2.6 nM | CC(C)Nc1cc(Nc2ccc3ncsc3c2)ncc1C(=O)NC[C@@H](F)C(C)(C)O [Example 35] | 482 |  | 
3.9 nM | CC(C)(O)[C@H](F)CNC(=O)c1cnc(Nc2ccc3ncsc3c2)cc1NC1CCC(O)C1 (stereo partly shown) [Example 37] | 297 |  | 
5.2 nM | CC(C)(O)[C@H](F)CNC(=O)c1cnc(Nc2ccc3ncsc3c2)cc1NC1CCC(O)C1 (stereo partly shown) [Example 38] |  | 426 | 
2.7 nM | CC(C)(O)[C@H](F)CNC(=O)c1cnc(Nc2ccc3ncsc3c2)cc1NC1CC1 [Example 42] | 228 |  | 
6.8 nM | CC1(O)CCC(Nc2cc(Nc3ccc4ncsc4c3)ncc2C(=O)NC[C@@H](F)C(C)(C)O)C1 (stereo partly shown) [Example 50] | 571 |  | 
